Experimental data reported in a melting point compilation (Tetko et al.; mined from patent text by program, amines drawn as free bases though some values may be those of a salt).
Non-standard residues stand in square brackets, D forms with d. Residues, ends and D or L forms follow the SMILES beside them. *: point of attachment. pGlu = O=C1CC[CH](C(=O)O)N1; Morpholide = C1CN(*)CCO1; Thz = O=C(O)[CH]1CSCN1

First: CCOC(=O)c1cc(NCc2ccccc2)c(Oc2ccccc2)c(S(=O)(=O)N(C)C)c1
Second: NS(=O)(=O)c1cc(C(=O)O)cc(NCc2ccccc2)c1NCCc1ccccc1
The melting point of the first is lower: 154 to 155 °C for the first, 203 °C for the second.

First: CCCCCCCCCCCCOCC(C=CC(=O)N(C)C)(C=CC(=O)N(C)C)COCCCCCCCCCCCC
Second: CCCCCCCCCCCCCCCCOCC(CO)CF (stereo not drawn)
The melting point of the first is higher: 52 to 54 °C for the first, 34 °C for the second.

Compared with `CP(C)(=O)COC(=O)c1ccccc1Nc1cccc(C(F)(F)F)c1`, `O=C(NC(=O)c1c(F)cccc1F)Nc1cc(C(F)(F)F)ccn1` is higher in melting point: 85 °C for the first, 167 to 169 °C for the second.

First: CCCCCCC(=N)NC(=O)Nc1ccc(Cl)cc1
Second: CCOC(=O)CC[C@H](NC(=O)c1ccc(CCCCc2c(N)nc(N)nc2O)cc1)C(=O)OCC
The melting point of the first is higher: 168 to 169 °C for the first, 75 to 76 °C for the second.

Compared with `COc1ccccc1NC(=O)Nc1nc(Nc2ccccc2-c2ccccc2)nc(N(CCC(=O)O)Cc2cccc3ccccc23)n1`, `COC(=O)c1ccc2ccn(Cc3ccc(OCc4ccc5ccccc5n4)cc3)c2c1` is lower in melting point: 218 to 221 °C for the first, 125 to 126 °C for the second.

First: CN(C)c1ccc(CN[C@@H](C(=O)O)[C@H](O)[C@H](Cc2ccccc2)NC(=O)OC(C)(C)C)cc1
Second: CCCCC(Cc1ccc(OCCNC(=O)c2ccc(-c3ccccc3)cc2)cc1)C(=O)O (stereo not drawn)
The melting point of the first is higher: 202 to 204 °C for the first, 130 to 131 °C for the second.

Compared with `CC1(O)C(O)C(CO)OC1n1ccc2c(N=[N+]=[N-])ncnc21` (stereo not drawn), `CCC(=NC#N)N[C@@H]1c2cc(C#N)ccc2OC(C)(C)[C@H]1O` (relative stereo) is lower in melting point: 179 to 180 °C for the first, 122 to 124 °C for the second.

First: COC(=O)c1ccc2nc3n(c(=O)c2c1)CCC3=Cc1ccccc1C
Second: COc1cc2c(cc1OC)CN(CCCc1ccc(NC(=O)c3cc(OC)c4ccccc4n3)cc1)CC2
The melting point of the first is higher: 181 to 183 °C for the first, 123 to 125 °C for the second.

Compared with `COc1cc(C(C)=O)ccc1OC1CCCC1`, `COc1ccc(C(=O)Nc2cccc(C3(C#N)CCCC3)c2)cc1OC` is higher in melting point: 55 to 56 °C for the first, 59 to 61 °C for the second.

First: N#Cc1c(-c2ccccc2)c(-c2ccccc2)nn(CCCO)c1=O
Second: CCC(=O)c1ccc2c(c1)OC(c1ccccc1)(c1ccccc1)O2
The melting point of the first is higher: 156 to 157 °C for the first, 69 to 70.5 °C for the second.

First: Cc1cc(SCc2sc(-c3ccc(F)c(F)c3)nc2C)ccc1OCC(=O)O
Second: Cc1cc(N(C)Cc2oc(-c3ccc(C(F)(F)F)cc3)nc2C)ccc1OCC(=O)O
The melting point of the first is lower: 119 °C for the first, 156 to 157 °C for the second.

First: O=C(O)Cc1ccc(C(=O)O)cc1
Second: O=C(O)Cc1c(C(=O)c2ncc[nH]2)[nH]c2ccc(Cl)cc12
The melting point of the first is lower: 235 to 237 °C for the first, 253 to 254 °C for the second.

Going from `CC1(C)CC(=O)C(Cl)(Cl)C(Cl)C1Br` (stereo not drawn) to `CC(=O)C1CCC2C3CCC4CC(=O)C(C)CC4(C)C3C(=O)CC12C` (stereo not drawn), the melting point rises from 117 °C to 176 °C.

First: CC(=O)Nc1ccc2c(c1)C(=O)NC2=O
Second: CCOC(=O)C1CN(c2ccccc2)C(=O)C1=O (stereo not drawn)
The melting point of the first is higher: greater than 250 °C for the first, 153 to 155 °C for the second.

Compared with `O=C(CN1CCN(c2cnccn2)CC1)N1CC=C(c2ccc(Cl)cc2)CC1`, `CN1CCC(Sc2[nH]nc(-c3ccc(Cl)cc3)c2-c2ccncc2)CC1` is higher in melting point: 139 to 141 °C for the first, 228 °C for the second.

Compared with `Cc1nc(-c2ccccc2)nc(-c2ccccn2)n1`, `O=C(Nc1c[nH]nc1C(=O)Nc1ccccc1)c1ccccn1` is higher in melting point: 97 °C for the first, 281 to 282 °C for the second.

Compared with `CC(C)CCCC(C)C1CCC2C3CC=C4CC(NCCCNC(=O)CCCCCNc5ccc([N+](=O)[O-])c6nonc56)CCC4(C)C3CCC12C` (stereo not drawn), `CC(C)(C)c1cc(CCc2ccccc2NC(=O)NCC2CCCCC2)cc(C(C)(C)C)c1O` is higher in melting point: 78 to 80 °C for the first, 208 to 210 °C for the second.

First: Cc1cc(C)cc(-c2ccc3c(c2)CC[C@H]2N(C)C(=O)CC[C@]32C)c1
Second: Cc1cc(C)c(C(CO)c2ccc(C(C)C)cc2)c(O)c1 (stereo not drawn)
The melting point of the first is higher: 129 to 130 °C for the first, 101 to 102 °C for the second.

First: Cc1c(NC(=O)c2ccc(-c3ccc(F)cc3)cc2)ccc2cc(CN3CCOCC3)cnc12
Second: COc1cc(Nc2c(C#N)cnc3cc(-c4ccc(CN5CCOCC5)c(CN5CCOCC5)c4)ccc23)c(Cl)cc1Cl
The melting point of the first is lower: 176 to 178 °C for the first, 198 to 200 °C for the second.

First: O=C1c2cccnc2N(N2CCCCC2)C2=NCCN12
Second: O=C1c2c(Cl)cccc2-n2cnc(-c3noc(CN4CCCC4)n3)c2[C@@H]2CCN12
The melting point of the first is higher: 206 to 207 °C for the first, 117 to 120 °C for the second.

Compared with `CCC1CCc2nc3c(c(N)c2C1=O)c1ccccc1n3C` (stereo not drawn), `CC1(CCN)OCCc2c1[nH]c1ccccc21` (stereo not drawn) is lower in melting point: 129 to 131 °C for the first, 80 to 84 °C for the second.

Compared with `CCCOC(OCCC)P(=O)(O)CCCN`, `CCCCCCSCCSCCSc1nc2nc(C)cc(O)n2n1` is lower in melting point: 223 to 225 °C for the first, 119 to 121 °C for the second.

Compared with `CCCn1nc(C(C)C)c(C(=O)OCc2cccc(C(=O)c3ccccc3)c2)c1Cc1ccc(-c2ccccc2S(=O)(=O)NC(=O)OC(C)(C)C)c(F)c1`, `COC(=O)C(C(=O)OC)c1c(C(=O)OCc2ccc(OC)cc2)cc([N+](=O)[O-])c2ccccc12` is higher in melting point: 55 to 59 °C for the first, 124 to 125 °C for the second.

First: CCc1c(OC)cc(OC)c2c1C(=O)N(CSc1nnnn1-c1ccccc1)S2(=O)=O
Second: COc1cccc(C=C2N=C(c3ccc([N+](=O)[O-])cc3)OC2=O)c1OC
The melting point of the first is lower: 162 to 164 °C for the first, 203 to 208 °C for the second.

Compared with `Cc1ccc(Oc2ccc(-n3cncn3)cc2)c(O)c1`, `CN1CCN(c2ccc(S(=O)(=O)Oc3cccc(F)c3)cc2)C1=O` is higher in melting point: 107 to 109 °C for the first, 175 to 177 °C for the second.

First: CN(C)C(=O)Oc1ccc2c(NCCN3CCOCC3)noc2c1
Second: Cc1cc(N2CC=C(C(=O)OC(C)C)CC2)c2cccc(Br)c2n1
The melting point of the first is higher: 150 °C for the first, 130 to 131 °C for the second.

First: CC(C)(C)c1cc2c(c(C(C)(C)C)c1)OC(=O)C2c1ccc(F)cc1 (stereo not drawn)
Second: COc1ccc(C(=O)Nc2ccc(C(C)(C)C(N)=O)cc2)cc1
The melting point of the first is lower: 146 to 147 °C for the first, 234 to 235 °C for the second.

First: Cc1cc(CCCCCSc2ccc(C3=NCCO3)cc2)on1
Second: N#CCc1ccc(-c2nc3ccccc3o2)cc1Br
The melting point of the first is lower: 89 to 91 °C for the first, 190 to 191 °C for the second.

Compared with `Cc1nsnc1-n1cc(C(=O)O)c(=O)c2cc(F)c(Cl)nc21`, `Fc1cc(F)c(-c2c(Cl)nc(-n3ccnc3)nc2NCC(F)(F)F)c(F)c1` is lower in melting point: 247 to 249 °C for the first, 168 to 170 °C for the second.

Compared with `CCc1ccc(-c2cc3ncnc(Nc4ccc5[nH]ccc5c4)c3s2)cc1`, `COc1ccc(-c2cc(=O)n(CCc3ccc(Cl)cc3)nc2-c2ccc(OC)cc2)cc1` is lower in melting point: 171 to 182 °C for the first, 133 to 134 °C for the second.

Compared with `O=S(=O)(CCCl)C(c1ccccc1)S(=O)(=O)CCCl`, `CC(=O)N1C(C(=O)NCCO[N+](=O)[O-])CSC1c1ccccc1` (stereo not drawn) is lower in melting point: 106 to 108 °C for the first, 103 to 105 °C for the second.

First: CCOC(=O)CSC(=S)N1Cc2[nH]c3ccccc3c2CC1C(=O)O (stereo not drawn)
Second: CCOC(=O)C1=C(C)NC(=S)N(C(=O)OCC)C1c1ccc([N+](=O)[O-])cc1 (stereo not drawn)
The melting point of the first is higher: 190 to 192 °C for the first, 163 to 165 °C for the second.

Compared with `CCOc1nc(C)c2cc(OC)c(OC)cc2c1C(=O)OC`, `COC(=O)CCc1c(C(C)C)cc(C(C)C)cc1C(C)C` is lower in melting point: 147 to 149 °C for the first, 45 to 47 °C for the second.

First: O=S1(=O)CCN(c2nc(Cl)nc3c(Cl)ncnc23)CC1
Second: Nc1nc(N)c(-c2ccc(Cl)cc2Cl)c(C=NO)n1
The melting point of the first is higher: 270 to 273 °C for the first, 260 to 265 °C for the second.

First: Cc1c(C(=O)N(C)Cc2ccc3c(Br)c(OCc4nnn[nH]4)ccc3c2)oc2ccccc12
Second: Clc1ccc(C2Cc3cnc4[nH]ncc4c3-c3ccccc32)cc1Cl (stereo not drawn)
The melting point of the first is higher: 164 to 166 °C for the first, 76 to 78 °C for the second.

First: CC(CCOc1ccccc1NS(C)(=O)=O)N1CCC(OC(c2ccccc2)c2cccs2)CC1 (stereo not drawn)
Second: O=C(C=Cc1cccnc1)NCCCCN1CCN(C(c2ccccc2)c2ccccc2)CC1
The melting point of the first is lower: 100 to 102 °C for the first, 143 to 144 °C for the second.

Compared with `O=C1CCC(C(=O)N2CSCC2C(=O)N2CCOCC2)N1` (stereo not drawn) ([pGlu]-[Thz]-Morpholide; configuration not given here), `CC(C)(C)OC(=O)N1CCn2c(c(C(N)=O)c(C#N)c2C2CCN(S(C)(=O)=O)CC2)C1` is higher in melting point: 187 to 188 °C for the first, 220 °C for the second.

First: COc1ccc2c(c1)[C@H](c1ccccc1)CN(C)CC2
Second: CCOc1ccc(C(=O)N2CCc3cc(S(=O)(=O)n4cc(-c5ccccc5)[nH]c4=O)ccc32)cc1
The melting point of the first is lower: 50 to 51 °C for the first, 249 to 253 °C for the second.

First: CCNC(=S)NC1CCCc2sccc21 (stereo not drawn)
Second: NCC(c1ccc(F)cc1)C1CCCCC1O (mixture of isomers)
The melting point of the first is higher: 106 to 112 °C for the first, 75 to 76 °C for the second.

Compared with `COCCNC(=O)c1cccc(-c2cccc3cc(Cc4cc(F)cc(F)c4)sc23)c1`, `CCOC(=O)c1cc2cc(OCCNC[C@H](O)COc3ccccc3)ccc2s1` is higher in melting point: 96 to 97 °C for the first, 99 to 100 °C for the second.

First: O=c1[nH]c2sccc2c2ccccc12
Second: CC(=O)N1c2ccccc2Sc2c1ccc(O)c2Cl
The melting point of the first is higher: 266 to 268 °C for the first, 214 °C for the second.

`OC1(CNCc2ccccn2)CCN(CCCc2c[nH]c3ccc(-n4cnnc4)cc23)CC1` and `CC(=O)NCc1ccc(CCN2CCC(n3ccc4ccccc43)CC2)cc1` cannot be ordered by melting point: greater than 55 °C for the first, 133 to 134 °C for the second.

First: COC(=O)Cc1c(F)cccc1Cl
Second: C#CCNC(=O)c1ncn2c1[C@@H]1CCCN1Cc1c(Cl)cccc1-2
The melting point of the first is lower: 79 to 80 °C for the first, 233 to 235 °C for the second.

First: N#Cc1cccc(C2=Nc3ccc(C#Cc4ccccc4F)cc3NC(=O)C2)c1
Second: Cc1oc2c(C)c(C)c(NCc3ccccc3)c(C)c2c1-c1ccc(C(C)C)cc1
The melting point of the first is higher: 213 to 214 °C for the first, 94 to 95 °C for the second.

First: CC(C)(C)C(O)C(Oc1ccc(Cl)cc1)n1ncnc1S (stereo not drawn)
Second: COC(=O)C(Oc1ccc2c(c1)CCC2)c1ccc(OCCCOc2ccc(Cl)cc2)cc1 (stereo not drawn)
The melting point of the first is higher: 193 to 194 °C for the first, 60 to 62 °C for the second.

First: Cc1cnc(C)c(NCCc2c[nH]cn2)n1
Second: CN(C)C=Nc1ncc[nH]1
The melting point of the first is higher: 164 to 165 °C for the first, 146 to 147 °C for the second.

Compared with `Cc1cccc(C(=O)N2CC2C#N)n1` (stereo not drawn), `Cc1cc(-n2cnnn2)ccc1[N+](=O)[O-]` is higher in melting point: 120 to 122 °C for the first, 166 to 168 °C for the second.

Compared with `CCC(N)=C(C(C)=O)C(=O)N(CCN(C)C)c1cccc(F)c1`, `COC(=O)C=C1Oc2ccccc2Oc2ccccc21` is lower in melting point: 96 to 97 °C for the first, 81 to 83 °C for the second.

First: Cc1nnc2n1-c1sc(Cl)cc1C(c1ccccc1[N+](=O)[O-])=NC2
Second: Oc1ccc2c(c1)COc1c-2cc2ccc(O)cc2c1-c1cccs1
The melting point of the first is lower: 210 to 212 °C for the first, 233 to 236 °C for the second.
